Assay results from the CheMixHub viscosity set.

Assay: xn = mol fraction of the nth substance listed

COC(=O)c1ccccc1 + CCCCCC
101 kPa
Details	viscosity [mPa·s]
298.15 K, x2 = 0.0743	1.549
298.15 K, x2 = 0.1072	1.437
298.15 K, x2 = 0.1557	1.292
298.15 K, x2 = 0.2038	1.165
298.15 K, x2 = 0.2487	1.059
298.15 K, x2 = 0.306	0.942
298.15 K, x2 = 0.4327	0.739
298.15 K, x2 = 0.5799	0.573
298.15 K, x2 = 0.6269	0.531
298.15 K, x2 = 0.7731	0.43
298.15 K, x2 = 0.8687	0.379
298.15 K, x2 = 0.9288	0.356
308.15 K, x2 = 0.0711	1.287
308.15 K, x2 = 0.1099	1.188
308.15 K, x2 = 0.156	1.08
308.15 K, x2 = 0.1971	0.989
308.15 K, x2 = 0.2501	0.894
308.15 K, x2 = 0.2967	0.816
308.15 K, x2 = 0.3441	0.748
308.15 K, x2 = 0.3888	0.69
308.15 K, x2 = 0.4383	0.633
308.15 K, x2 = 0.4943	0.577
308.15 K, x2 = 0.5292	0.546
308.15 K, x2 = 0.5797	0.504
308.15 K, x2 = 0.6228	0.475
308.15 K, x2 = 0.6692	0.446
308.15 K, x2 = 0.7253	0.412
308.15 K, x2 = 0.767	0.392
308.15 K, x2 = 0.8162	0.37
308.15 K, x2 = 0.8731	0.347
308.15 K, x2 = 0.9205	0.329
318.15 K, x2 = 0.08	1.087
318.15 K, x2 = 0.0873	1.072
318.15 K, x2 = 0.1249	1
318.15 K, x2 = 0.1776	0.906
318.15 K, x2 = 0.2189	0.839
318.15 K, x2 = 0.2731	0.757
318.15 K, x2 = 0.3197	0.696
318.15 K, x2 = 0.3711	0.634
318.15 K, x2 = 0.4155	0.586
318.15 K, x2 = 0.4667	0.537
318.15 K, x2 = 0.5132	0.499
318.15 K, x2 = 0.5535	0.471
318.15 K, x2 = 0.6116	0.436
318.15 K, x2 = 0.6634	0.41
318.15 K, x2 = 0.7082	0.388
318.15 K, x2 = 0.7636	0.365
318.15 K, x2 = 0.8087	0.35
318.15 K, x2 = 0.8631	0.333
318.15 K, x2 = 0.9098	0.317

O=C(OCc1ccccc1)c1ccccc1 + CCOC(=O)c1ccccc1C(=O)OCC
313.15 K, 101.33 kPa
Details	viscosity [mPa·s]
x1 = 0.25	5.87
x1 = 0.5	5.54
x1 = 0.75	5.27

CCOC(=O)CCl + Brc1ccccc1
viscosity [mPa·s], 101.3 kPa
Details	x1 = 0.1089	x1 = 0.2034	x1 = 0.3024	x1 = 0.3976	x1 = 0.5011	x1 = 0.6018	x1 = 0.6992	x1 = 0.7963	x1 = 0.8948
298.15 K	1.079	1.079	1.08	1.082	1.085	1.087	1.092	1.096	1.098
303.15 K	1.012	1.011	1.01	1.011	1.012	1.014	1.017	1.018	1.01
308.15 K	0.947	0.943	0.94	0.938	0.938	0.942	0.941	0.941	0.939

CCCCOCCO + ClC(Cl)Cl
298.15 K, 101.3 kPa
Details	viscosity [mPa·s]
x1 = 0.0035	0.536
x1 = 0.0216	0.555
x1 = 0.0344	0.57
x1 = 0.0767	0.628
x1 = 0.1259	0.703
x1 = 0.2281	0.901
x1 = 0.2903	1.042
x1 = 0.3627	1.235
x1 = 0.4472	1.494
x1 = 0.5049	1.659
x1 = 0.5823	1.894
x1 = 0.6772	2.175
x1 = 0.7828	2.429
x1 = 0.8296	2.525
x1 = 0.9123	2.702

O=P([O-])([O-])[O-].[H+].[K+].[K+] + O
viscosity [mPa·s], 101 kPa
Details	x1 = 0.0018	x1 = 0.0054	x1 = 0.0089	x1 = 0.012	x1 = 0.016
298.15 K	0.931	1.001	1.091	1.203	1.329
303.15 K	0.8465	0.9207	0.9963	–	1.204
308.15 K	0.7552	0.814	0.8844	0.9818	1.081

CCOCCOCCOCC + COC(=O)OC
viscosity [mPa·s], 101.33 kPa
Details	298.15 K	308.15 K	318.15 K
x1 = 0.0109	0.604	0.532	0.48
x1 = 0.0541	0.641	0.563	0.502
x1 = 0.0935	0.677	0.593	0.523
x1 = 0.1383	0.718	0.624	0.546
x1 = 0.1877	0.76	0.654	0.571
x1 = 0.2422	0.808	0.689	0.604
x1 = 0.3409	0.886	0.752	0.651
x1 = 0.4435	0.959	0.811	0.697
x1 = 0.5274	1.021	0.855	0.727
x1 = 0.6085	1.072	0.894	0.761
x1 = 0.7154	1.136	0.942	0.798
x1 = 0.8183	1.189	0.986	0.831
x1 = 0.9068	1.229	1.019	0.857
x1 = 0.9643	1.258	1.037	0.872

CC(C)CC(C)C + c1ccccc1
101 kPa, x1 = 0.5
Details	viscosity [mPa·s]
298 K	0.3825
318 K	0.314

CC(C)OCCO + CO
298.15 K, 101.33 kPa
Details	viscosity [mPa·s]
x1 = 0.012	0.569
x1 = 0.0276	0.602
x1 = 0.05	0.637
x1 = 0.0732	0.684
x1 = 0.1063	0.749
x1 = 0.1319	0.795
x1 = 0.1558	0.842
x1 = 0.1871	0.897
x1 = 0.2119	0.946
x1 = 0.2575	1.036
x1 = 0.2683	1.056
x1 = 0.3161	1.145
x1 = 0.3643	1.235
x1 = 0.412	1.324
x1 = 0.4685	1.415
x1 = 0.5152	1.485
x1 = 0.5447	1.529
x1 = 0.6149	1.624
x1 = 0.6869	1.719
x1 = 0.7416	1.789
x1 = 0.7775	1.832
x1 = 0.8335	1.912
x1 = 0.8955	1.975
x1 = 0.9189	2.003
x1 = 0.9415	2.032
x1 = 0.9701	2.064

COC(=O)c1ccccc1 + CC(C)O
viscosity [mPa·s], 101 kPa
Details	x1 = 0.0634	x1 = 0.1321	x1 = 0.2069	x1 = 0.2887	x1 = 0.3784	x1 = 0.4773	x1 = 0.5868	x1 = 0.7089	x1 = 0.8456
303.15 K	1.655	1.656	1.658	1.659	1.661	1.663	1.664	1.666	1.668
308.15 K	1.495	1.495	1.496	1.496	1.497	1.498	1.498	1.499	1.5
313.15 K	1.323	1.326	1.33	1.335	1.339	1.344	1.35	1.356	1.363
318.15 K	1.189	1.196	1.204	1.212	1.221	1.231	1.242	1.254	1.267
323.15 K	1.074	1.085	1.097	1.11	1.123	1.14	1.157	1.177	1.198
